Active and inactive are the calls of the source. No rule for the calls is given here.
Target: Bcl-2-like protein 2 (Homo sapiens) (UniProt Q92843)
Assay: modulators of Bim-Bcl-W protein interaction, dose response, biochemical, multiplexed, bead-based flow cytometry, fluorescence (AID 1330)
Conditions: Bim-Bcl-W binding

Bcl-2-like protein 2 (Homo sapiens), sequence (Q92843 whole entry, looked up): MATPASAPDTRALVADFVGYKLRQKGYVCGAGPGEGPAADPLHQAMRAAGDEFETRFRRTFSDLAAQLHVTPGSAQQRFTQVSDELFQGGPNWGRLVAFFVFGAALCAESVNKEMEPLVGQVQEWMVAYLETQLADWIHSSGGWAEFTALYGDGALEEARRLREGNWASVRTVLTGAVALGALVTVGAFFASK

Row | EC50 | Structure (SMILES)
1 | inactive | COc1cccc(/C=N/Nc2nn3cnnc3c3ccccc23)c1O
2 | inactive | O=C(N/N=C/c1ccc(O)c(O)c1O)/C(=C/c1ccc([N+](=O)[O-])cc1)NC(=O)c1ccccc1
3 | 3.52 µM | O=[N+]([O-])c1ccc(N/N=C/c2ccc(O)c(O)c2O)c(S(=O)(=O)N2CCOCC2)c1
4 | inactive | CCC(=O)N(CC)C1=C(O)c2ccccc2C(=O)C1=O
5 | inactive | COc1cccc(/C=N/Nc2nn3cnnc3c3ccccc23)c1
